For one series, the system named is TRPM8. The settings on record: cited from earlier work.
The next series has as its system TRPV1. Briefly: whole-cell patch-clamp recording in response to a voltage ramp. The series is classed as cell-based. A general note: In patch-clamp work, channel activity is measured electrically.
The target of series [1] is T1, wild-type TRPM8 (Mus musculus, UniProt Q8R4D5).
T1 construct: expressed in transfected cells; host or cells: HEK293T
Briefly: whole-cell patch-clamp recording of ligand activation. The series is classed as cell-based. How it is done: (§1) Murine TRPM8 was used in this study. Point mutations were made by Fast Mutagenesis Kit V2 (SBS Genetech). Primers used to generate point mutations are summarized in Supplementary Table 2.
Cells were transiently transfected with cDNA constructs by Lipofectamine 3000 (Life Technologies) following the manufacturer’s protocol. Patch-clamp recordings were performed 1–2 days after transfection.
(§2) Patch-clamp recordings were performed with a HEKA EPC10 amplifier controlled by PatchMaster software (HEKA). Whole-cell recordings were performed at ±80 mV. Patch pipettes were prepared from borosilicate glass and fire-polished to resistance of ~4 MΩ. For whole-cell recording, serial resistance was compensated by 60%. For single-channel recordings, patch pipettes were fire-polished to a higher resistance of 6-to-10 MΩ and then recorded in the inside-out configuration. To maximize the chance of obtaining a patch with only one channel, single-channel recordings were performed about 8 h after transfection. A solution with 130 mM NaCl, 10 mM glucose, 0.2 mM EDTA, and 3 mM HEPES (pH 7.2) was used in both bath and pipette for either whole-cell or single-channel recordings. Membrane potential was clamped at +80 mV for single-channel recordings. Current was sampled at 10 kHz and filtered at 2.9 kHz. All recordings were performed at room temperature (22 °C) with the maximum variation of 1 °C.
(§3) Ligands such as menthol and its analogs were perfused to membrane patch by a gravity-driven system (RSC-200, Bio-Logic). Bath and ligand solution were delivered through separate tubes to minimize the mixing of solutions. Patch pipette was placed in front of the perfusion tube outlet.
(§4) Data from whole-cell recordings were analyzed in Igor Pro version 6.1 (WaveMatrix). EC50 values were derived from fitting a Hill equation to the concentration–response relationship. […] To distinguish these possibilities, dissociation constant (Kd) for ligand binding was estimated assuming the following gating scheme:1 C0↔KdC1↔LO, where L is the equilibrium constant for the final closed-to-open transition.

The target in series [2] is T1, wild-type TRPM8. As to the kind of experiment: open probability from noise analysis of macroscopic current and single-channel recordings. The series is classed as cell-based. The settings on record: wild-type TRPM8; near saturating concentration (menthol 500 µM). How it is done:
as §2
From single-channel recordings, the open probability (Po) was calculated after events detection with a hidden Markov approach in the software QuB[49] (http://www.qub.buffalo.edu/). A dead time of 0.32 ms was imposed. As a complementary approach, Po was also estimated from noise analysis[52] of whole-cell recordings. Briefly, the mean current amplitude (I), the squared deviations in current amplitude from the mean value (σ^2), and the single-channel current (i) were measured experimentally from a membrane patch of ion channels. Then the number of ion channels clamped in that patch (N) was determined as3 N=I^2/i⋅I−σ^2.
The maximum current when each of ion channel is at the open state with a Po of 1 is equal to i × N. Then the open probability was calculated as the ratio between the measured macroscopic current and the maximum current calculated by noise analysis. To estimate channel conductance, current amplitude was estimated from all-point histogram of single-channel recordings.

In another series the target is T2, TRPM8 D802L (Mus musculus, UniProt Q8R4D5, D802L).
T2 construct: expressed in transfected cells; host or cells: HEK293T
T2 sequence (Q8R4D5 whole entry D802L): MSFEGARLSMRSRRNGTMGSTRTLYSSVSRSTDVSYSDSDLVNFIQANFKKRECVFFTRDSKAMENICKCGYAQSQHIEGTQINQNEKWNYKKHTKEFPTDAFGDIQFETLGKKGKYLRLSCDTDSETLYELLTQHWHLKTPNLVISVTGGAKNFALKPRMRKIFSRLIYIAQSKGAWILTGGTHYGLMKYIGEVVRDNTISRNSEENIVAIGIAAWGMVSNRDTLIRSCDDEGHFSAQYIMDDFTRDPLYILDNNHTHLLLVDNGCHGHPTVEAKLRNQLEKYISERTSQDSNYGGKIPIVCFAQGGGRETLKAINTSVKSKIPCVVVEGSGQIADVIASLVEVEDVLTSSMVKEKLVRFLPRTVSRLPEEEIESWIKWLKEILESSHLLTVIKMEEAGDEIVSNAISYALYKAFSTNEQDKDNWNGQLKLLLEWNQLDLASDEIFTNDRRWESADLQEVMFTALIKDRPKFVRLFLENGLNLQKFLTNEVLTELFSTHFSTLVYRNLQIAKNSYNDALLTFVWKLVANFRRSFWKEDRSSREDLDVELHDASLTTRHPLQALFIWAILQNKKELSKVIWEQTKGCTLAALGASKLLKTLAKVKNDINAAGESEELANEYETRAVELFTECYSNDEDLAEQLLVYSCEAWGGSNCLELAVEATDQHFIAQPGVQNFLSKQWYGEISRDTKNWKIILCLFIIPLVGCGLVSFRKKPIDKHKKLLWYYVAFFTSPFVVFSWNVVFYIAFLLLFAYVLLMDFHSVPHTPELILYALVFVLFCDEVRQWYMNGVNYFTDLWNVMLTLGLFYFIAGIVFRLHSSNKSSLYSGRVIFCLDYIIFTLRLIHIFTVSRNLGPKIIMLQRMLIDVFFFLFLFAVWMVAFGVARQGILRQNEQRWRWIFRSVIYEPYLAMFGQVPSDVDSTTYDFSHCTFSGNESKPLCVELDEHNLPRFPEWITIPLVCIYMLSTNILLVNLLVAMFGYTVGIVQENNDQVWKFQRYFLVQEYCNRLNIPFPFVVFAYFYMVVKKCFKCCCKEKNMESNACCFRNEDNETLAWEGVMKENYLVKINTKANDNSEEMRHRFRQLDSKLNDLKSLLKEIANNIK
As to the kind of experiment: whole-cell patch-clamp and thermodynamic mutant cycle analysis. The series is classed as cell-based. How it is done: as §1
(§5) HEK293T cells purchased from Kunming Cell Bank, Kunming Institute of Zoology, Chinese Academy of Sciences (ATCC, CRL-3216) were cultured in Dulbecco’s modified Eagle’s medium supplemented with 20 mM L-glutamine and 10% fetal bovine serum. Cells were transiently transfected with cDNA constructs by Lipofectamine 3000 (Life Technologies) following the manufacturer’s protocol. Patch-clamp recordings were performed 1–2 days after transfection.
as §2, §3, §4
(§6) To perform thermodynamic cycle analysis, Kd values of four channel-ligand combinations (WT channel, menthol: Kd _1; Mutant channel, menthol: Kd _2; WT channel, menthol analog: Kd _3; Mutant channel, menthol analog: Kd _4) were determined separately. The strength of coupling was determined by the coupling energy (kT multiplied by LnΩ, where k is the Boltzmann constant and T is temperature in Kelvin). LnΩ was calculated by Eq. (2) as[51]2 LnΩ=LnKd_1⋅Kd_4/Kd_2⋅Kd_3.

For another series, the target named is T3, TRPM8 L797A (Mus musculus, UniProt Q8R4D5, L797A).
T3 construct: expressed in transfected cells; host or cells: HEK293T
T3 sequence (Q8R4D5 whole entry L797A): as the sequence (Q8R4D5 whole entry D802L) above, with L797A, L802D counted along it
The description is as above. It is filed as cell-based. How it is done:
as §1, §5, §2, §3, §4, §6

The target in another series is T4, TRPM8 R842K (Mus musculus, UniProt Q8R4D5, R842K).
T4 construct: expressed in transfected cells; host or cells: HEK293T
T4 sequence (Q8R4D5 whole entry R842K): as the sequence (Q8R4D5 whole entry D802L) above, with L802D, R842K counted along it
The series is described as above. It is filed as cell-based. How it is done:
as §1, §5, §2, §3, §4, §6

A further series addresses T5, TRPM8 D802I (Mus musculus, UniProt Q8R4D5, D802I).
T5 construct: expressed in transfected cells; host or cells: HEK293T
The series is described as above. The series is classed as cell-based. How it is done:
as §1, §5, §2, §3, §4, §6

The next series has as its target T6, TRPM8 Y1005F (Mus musculus, UniProt Q8R4D5, Y1005F).
T6 construct: expressed in transfected cells; host or cells: HEK293T
Described as above. The series is classed as cell-based. How it is done:
as §1, §5, §2, §3, §4, §6

Another series addresses T7, TRPM8 D802S (Mus musculus, UniProt Q8R4D5, D802S).
T7 construct: expressed in transfected cells; host or cells: HEK293T
The series is described as above. It is filed as cell-based. How it is done: as §1, §5, §2, §3, §4, §6

Another series deals with T8, TRPM8 W798A (Mus musculus, UniProt Q8R4D5, W798A).
T8 construct: expressed in transfected cells; host or cells: HEK293T
T8 sequence (Q8R4D5 whole entry W798A): as the sequence (Q8R4D5 whole entry D802L) above, with W798A, L802D counted along it
The description is as above. It is filed as cell-based. How it is done:
as §1, §5, §2, §3, §4, §6

For the next series, the target named is T9, TRPM8 Y745F (Mus musculus, UniProt Q8R4D5, Y745F).
T9 construct: expressed in transfected cells; host or cells: HEK293T
T9 sequence (Q8R4D5 whole entry Y745F): as the sequence (Q8R4D5 whole entry D802L) above, with Y745F, L802D counted along it
The series is described as above. The series is classed as cell-based. How it is done:
Murine TRPM8 was used in this study. Point mutations were made by Fast Mutagenesis Kit V2 (SBS Genetech). Primers used to generate point mutations are summarized in Supplementary Table 2. All mutations were confirmed by sequencing.
as §5, §2, §3
Data from whole-cell recordings were analyzed in Igor Pro version 6.1 (WaveMatrix). EC50 values were derived from fitting a Hill equation to the concentration–response relationship. Changes in EC50 by point mutation may be caused by either perturbation of ligand bind or channel gating or both. To distinguish these possibilities, dissociation constant (Kd) for ligand binding was estimated assuming the following gating scheme:1 C0↔KdC1↔LO, where L is the equilibrium constant for the final closed-to-open transition.
as §6

The mark [3] stands for this setting: mutant cycle menthol vs labelled analog.

“And” between values parts separate entries of the source, which are not always exact repeats. Identical values can stand only once. “Also recorded” adds a separate entry of the source. Like-named read-outs stand apart in the source and are kept apart here.

T7 sequence (Q8R4D5 whole entry D802S): as the sequence (Q8R4D5 whole entry D802L) above, with L802S counted along it
T5 sequence (Q8R4D5 whole entry D802I): as the sequence (Q8R4D5 whole entry D802L) above, with L802I counted along it
T1 sequence (Q8R4D5 whole entry): as the sequence (Q8R4D5 whole entry D802L) above, with L802D counted along it
T6 sequence (Q8R4D5 whole entry Y1005F): as the sequence (Q8R4D5 whole entry D802L) above, with L802D, Y1005F counted along it
From the text for TRPV1: (b) Representative whole- cell patch- clamp recording of capsaicin activation of TRPV1 in response to a voltage ramp.

As to `C[C@H](c1ccc(F)cc1)N(Cc1cccc(C(=O)O)c1)C(=O)c1cnc2ccccc2c1` [PF-05105679], the “effect on cold-related pain” value with TRPM8 is listed as “effectively suppress cold-related pain”. For the same compound, the “temperature sensation (side effect)” value in the series with TRPM8 (patients, clinical trials) is reported as “side effects of altering temperature sensation; also recorded: altered temperature sensation in patients”.

Consider `COc1cc(CNC(=O)CCCC/C=C/C(C)C)ccc1O` [capsaicin], for which, in the series on TRPV1, the “effect of deep hyperpolarization on ligand-activated channel” value is “not antagonized”.

`CC(C)[C@@H]1CC[C@@H](C)CC1=O` [menthone, (−)-menthone]: the “L (equilibrium constant between closed and open states upon ligand binding), Ave” value at wild-type TRPM8 [1] (WT) came out at 0.9574; on TRPM8 R842K, 0.246. For the same compound, the “L, single recording” value at wild-type TRPM8 [1] (WT) was 1.13 and 1.132 and 0.6097. For the same compound, the “Ratio X1 (Kd menthol / Kd labelled analog)” value at wild-type TRPM8 [1] (WT) is 0.62. Further, the “concentration–response curve value, ave” value came out at 0.02705 at wild-type TRPM8 [1] (WT, 100 microM); 0.1118 on wild-type TRPM8 [1] (WT, 700 microM); 0.223 on wild-type TRPM8 [1] (WT, 800 microM); 0.4153 on wild-type TRPM8 [1] (WT, 1000 microM); 0.5864 on wild-type TRPM8 [1] (WT, 5000 microM); 0.596 on wild-type TRPM8 [1] (WT, 10000 microM). In addition, the figures for the “concentration–response curve value, ave” value on TRPM8 R842K (800 microM), at TRPM8 R842K (1000 microM) and at TRPM8 R842K (5000 microM) were 0.04014, 0.05391 and 0.1385, respectively. Besides, the “concentration–response curve value, single recording” value was 0.02655 and 0.02755 on wild-type TRPM8 [1] (WT, 100 microM); 0.1118 at wild-type TRPM8 [1] (WT, 700 microM); 0.3958 and 0.4096 and 0.4406 at wild-type TRPM8 [1] (WT, 1000 microM); 0.584 and 0.6851 and 0.4903 on wild-type TRPM8 [1] (WT, 5000 microM); 0.562 and 0.63 on wild-type TRPM8 [1] (WT, 10000 microM); 0.05631 and 0.03329 and 0.03847 and 0.03248 at TRPM8 R842K (800 microM). Further, the “concentration–response curve value, single recording” value on TRPM8 R842K (1000 microM) is 0.07259 and 0.05411 and 0.04679 and 0.04215. Besides, the Kd (as a rule, the equilibrium constant for the complex coming apart) at wild-type TRPM8 [1] (WT, read-out: Kd, single recording) was 1.4 mM and 2.02 mM and 1.34 mM; on TRPM8 R842K (calculated from concentration–response curves, read-out: Kd, Ave), 1.78 mM; on TRPM8 R842K (read-out: Kd, single recording), 1.12 mM and 2.99 mM and 1.51 mM and 1.5 mM. Further, on wild-type TRPM8 [1] (wild-type TRPM8, Hill equation fit of concentration–response, patch-clamp), the concentration for a half-maximal effect (EC50) (usually the concentration that produces a half-maximal response) turned out to be 813 ± 84.3 µM. In addition, at wild-type TRPM8 [2], the “maximum open probability (Po max)” value was 0.48 ± 0.05. The “Ratio X2 (Kd menthol / Kd labelled analog)” value is 3.06 on TRPM8 D802L; 1.22 at TRPM8 L797A; 4.90 on TRPM8 R842K; 1.35 on TRPM8 D802I; 0.15 at TRPM8 Y1005F; 2.58 at TRPM8 D802S. For the same compound, the results for the “Ratio X2 (Kd menthol / Kd labelled analog)” value on TRPM8 W798A and on TRPM8 Y745F were 0.21 and 1.11, respectively. Further, the “Omega(X1/X2)” value amounted to 0.20 on TRPM8 D802L (menthol vs labelled analog); 0.51 at TRPM8 L797A (menthol vs labelled analog); 0.13 at TRPM8 R842K (menthol vs labelled analog); 0.46 at TRPM8 D802I (menthol vs labelled analog); 4.12 on TRPM8 Y1005F (menthol vs labelled analog); 0.24 at TRPM8 D802S (menthol vs labelled analog). For the same compound, the “Omega(X1/X2)” value on TRPM8 W798A (menthol vs labelled analog) came to 2.89; at TRPM8 Y745F (menthol vs labelled analog) it was 0.56. Further, the “Coupling Energy” value on TRPM8 D802L (setting [3]) was 1.60 kT; on TRPM8 L797A (setting [3]) it was 0.67 kT; at TRPM8 R842K (setting [3]) it was 2.07 kT; at TRPM8 D802I (setting [3]), 0.78 kT; on TRPM8 Y1005F (setting [3]), 1.42 kT; at TRPM8 D802S (setting [3]), 1.42 kT. In addition, the “Coupling Energy” value at TRPM8 W798A (setting [3]) came to 1.06 kT; on TRPM8 Y745F (setting [3]), 0.59 kT.
